Counter-ions that a name gives are not always drawn.
tested on: TNF-α-induced IL-6 production in normal human skin fibroblast-derived CCD-1059Sk cells; experiment: Test for measurement of inhibitory activity against TNF-α-induced IL-6 production; format: cell-based; conditions: Homo sapiens, CCD-1059Sk, 16 h, test compound at 10 μM, TNF-α stimulation 16 hours, inhibition ratio of 100% or more is indicated as 100%
Description: 1. Test for Measurement of Inhibitory Activity Against IL-6 Production
An inhibitory effect on TNF-α-induced IL-6 production in normal human skin fibroblast-derived CCD-1059Sk cells (ATCC No. CRL-2072) was evaluated. The amount of IL-6 was determined by the homogeneous time-resolved fluorescence method using HTRF™ Human IL-6 kit (Cat. No. 62IL6PEB, manufactured by CIS-Bio international, Inc.). Specific test methods will be described below.
(Preparation of Test Compound Solution)
After a test compound was dissolved in dimethyl sulfoxide, the resulting solution was diluted with D-MEM medium containing 0.1% heat-inactivated fetal bovine serum, 0.1 mM MEM non-essential amino acid solution, 100 U/mL penicillin and 100 μg/mL streptomycin (hereinafter referred to as “medium”), whereby a 40 μM test compound solution was prepared.
(Test Method and Measurement Method)
1) CCD-1059Sk cells prepared at a density of 3×10^5 cells/mL were inoculated in a 384-well plate in an amount of 10 μL per well such that the cell density was 3×10^3 cells/well.
2). After the plate was incubated at 37° C. for several hours in a CO2 incubator, 5 μL of the test compound was added to each well.
3) After the plate was incubated at 37° C. for 1 hour in a CO2 incubator, 5 μL of a 40 ng/mL TNF-α solution was added to each well.
4) After the plate was incubated at 37° C. for 16 hours in a CO2 incubator, 10 μL of a cryptate-labeled anti-IL-6 antibody and an XL665-labeled anti-IL-6 antibody containing potassium fluoride was added to each well.
5) After the plate was incubated at room temperature for several hours, a fluorescence intensity ratio (665 nm/620 nm) was determined for each well using a multimode plate reader Analyse™ HT (manufactured by Molecular Device Corporation) and Criterion Host software version 2.00 (manufactured by Molecular Device Corporation), and then, the amount of IL-6 was calculated.
6) The same procedures as in the above 1) to 5) were performed except that 0.4% dimethyl sulfoxide was added in place of the test compound, and the obtained result was designated as the control.
7) The same procedures as in the above 1) to 5) were performed except that 0.4% dimethyl sulfoxide and the medium were added in place of the test compound and the TNF-α solution, respectively, and the obtained result was designated as the background.
(Calculation Formula of IL-6 Production Inhibition Ratio)
An IL-6 production inhibition ratio (%) was calculated from the following formula. IL-6 Production Inhibition Ratio (%)=100×{1−[(Amount of IL-6 for Test Compound)−(Amount of IL-6 for Background)/(Amount of IL-6 for Control)−(Amount of IL-6 for Background)]} (Evaluation Results)

**Q.** With CC1CCN(CCOc2ccccc2-c2cc(C(N)=O)c(NC(N)=O)[nH]2)CC1 [Compound 8-10] as the molecule, how does the inhibition at 10 µM read?
**A.** The inhibition at 10 µM was 98%.

**Q.** How did the inhibition at 10 µM turn out when NC(=O)Nc1[nH]c(-c2cc(Cl)ccc2OCCN2CCC(CCO)CC2)cc1C(N)=O [Compound 8-16] was run?
**A.** The inhibition at 10 µM was 100%.

**Q.** How did the inhibition at 10 µM turn out when NC(=O)Nc1[nH]c(-c2ccc(Cl)s2)cc1C(N)=O [Compound 1-48, 2-Aminocarbonylamino-5-(5-chlorothiophen-2-yl)pyrrole-3-carboxamide] was run?
**A.** The inhibition at 10 µM was 98%.

**Q.** For CSc1cccc(-c2cc(C(N)=O)c(NC(N)=O)[nH]2)c1 [Compound 1-43, 2-Aminocarbonylamino-5-(3-methylthiophenyl) pyrrole-3-carboxamide], which inhibition at 10 µM is on record?
**A.** The inhibition at 10 µM was 88%.

**Q.** NC(=O)Nc1[nH]c(-c2ccc(F)c(Cl)c2)cc1C(N)=O [Compound 1-36, 2-Aminocarbonylamino-5-(3-chloro-4-fluorophenyl)pyrrole-3-carboxamide] was tested. Which inhibition at 10 µM did it give?
**A.** The inhibition at 10 µM was 100%.

**Q.** For COc1ccc(F)cc1-c1cc(C(N)=O)c(NC(N)=O)[nH]1 [Compound 1-19, 2-Aminocarbonylamino-5-(5-fluoro-2-methoxyphenyl)pyrrole-3-carboxamide], which inhibition at 10 µM is on record?
**A.** Its inhibition at 10 µM is 100%.

**Q.** Which inhibition at 10 µM does the source give for NC(=O)Nc1[nH]c(-c2cccc(C#CCO)c2)cc1C(N)=O [Compound 10-3] here?
**A.** Its inhibition at 10 µM is 100%.

**Q.** For N#Cc1ccc(-c2cc(C(N)=O)c(NC(N)=O)[nH]2)cc1 [Compound 1-15, 2-Aminocarbonylamino-5-(4-cyanophenyl) pyrrole-3-carboxamide], which inhibition at 10 µM is on record?
**A.** Its inhibition at 10 µM is 80%.

**Q.** How did the inhibition at 10 µM turn out when CN(C)CCOc1ccccc1-c1cc(C(N)=O)c(NC(N)=O)[nH]1 [Compound 4-31, 2-Aminocarbonylamino-5-[2-(2-dimethylaminoethyloxy)phenyl]pyrrole-3-carboxamide] was run?
**A.** Its inhibition at 10 µM is 98%.

**Q.** Which inhibition at 10 µM does the source give for NC(=O)Nc1[nH]c(-c2cccc(Cl)c2)c(CO)c1C(N)=O [Compound 18-1, 2-Aminocarbonylamino-5-(3-chlorophenyl)-4-(hydroxymethyl)pyrrole-3-carboxamide] here?
**A.** The inhibition at 10 µM was 90%.

**Q.** Which inhibition at 10 µM does the source give for CNCCOc1ccccc1-c1cc(C(N)=O)c(NC(N)=O)[nH]1 [Compound 20-1, 2-Aminocarbonylamino-5-[2-(2-methylaminoethyloxy)phenyl]pyrrole-3-carboxamide hydrochloride] here?
**A.** Its inhibition at 10 µM is 95%.

**Q.** With NC(=O)Nc1[nH]c(-c2ccc(Br)cc2)cc1C(N)=O [Compound 1-1, 2-Aminocarbonylamino-5-(4-bromophenyl)pyrrole-3-carboxamide] as the molecule, how does the inhibition at 10 µM read?
**A.** Its inhibition at 10 µM is 94%.

**Q.** Which inhibition at 10 µM does the source give for NC(=O)Nc1[nH]c(-c2ccccc2OCCN2CCCCC2)cc1C(N)=O [Compound 4-27, 2-Aminocarbonylamino-5-[2-[2-(piperidin-1-yl)ethyloxyl]phenyl]pyrrole-3-carboxamide] here?
**A.** The inhibition at 10 µM was 99%.

**Q.** Which inhibition at 10 µM does the source give for NC(=O)Nc1[nH]c(-c2cc(Cl)ccc2OCCN2CCCCC2)cc1C(N)=O [Compound 8-14] here?
**A.** Its inhibition at 10 µM is 100%.

**Q.** NC(=O)Nc1[nH]c(-c2ccoc2)cc1C(N)=O [Compound 9-2] was tested. Which inhibition at 10 µM did it give?
**A.** The inhibition at 10 µM was 87%.

**Q.** With NC(=O)Nc1[nH]c(-c2cc(F)ccc2O)cc1C(N)=O [Compound 3-3, 2-Aminocarbonylamino-5-(5-fluoro-2-hydroxyphenyl)pyrrole-3-carboxamide] as the molecule, how does the inhibition at 10 µM read?
**A.** Its inhibition at 10 µM is 100%.

**Q.** NC(=O)Nc1[nH]c(-c2ccccn2)cc1C(N)=O [Compound 1-2, 2-Aminocarbonylamino-5-(pyridin-2-yl) pyrrole-3-carboxamide] was tested. Which inhibition at 10 µM did it give?
**A.** Its inhibition at 10 µM is 85%.

**Q.** How did the inhibition at 10 µM turn out when NC(=O)Nc1[nH]c(-c2ccccc2C(F)(F)F)cc1C(N)=O [Compound 1-13, 2-Aminocarbonylamino-5-(2-trifluoromethylphenyl)pyrrole-3-carboxamide] was run?
**A.** Its inhibition at 10 µM is 93%.

**Q.** Which inhibition at 10 µM does the source give for CSCc1cccc(-c2cc(C(N)=O)c(NC(N)=O)[nH]2)c1 [Compound 15-1, 2-Aminocarbonylamino-5-(3-methylthiomethylphenyl)pyrrole-3-carboxamide] here?
**A.** The inhibition at 10 µM was 98%.

**Q.** Which inhibition at 10 µM does the source give for NC(=O)Nc1[nH]c(-c2cccc([N+](=O)[O-])c2)cc1C(N)=O [Compound 1-6, 2-Aminocarbonylamino-5-(3-nitrophenyl) pyrrole-3-carboxamide] here?
**A.** Its inhibition at 10 µM is 92%.

**Q.** With CC(=O)Oc1ccccc1-c1cc(C(N)=O)c(NC(N)=O)[nH]1 [Compound 5-1, 2-Aminocarbonylamino-5-(2-acetoxyphenyl)pyrrole-3-carboxamide] as the molecule, how does the inhibition at 10 µM read?
**A.** The inhibition at 10 µM was 94%.

**Q.** Which inhibition at 10 µM does the source give for NC(=O)Nc1[nH]c(-c2cc(Cl)ccc2O)cc1C(N)=O [Compound 3-4, 2-Aminocarbonylamino-5-(5-chloro-2-hydroxyphenyl)pyrrole-3-carboxamide] here?
**A.** The inhibition at 10 µM was 100%.

**Q.** For NC(=O)Nc1[nH]c(-c2ccccc2OCCN2CCCC2)cc1C(N)=O [Compound 8-4], which inhibition at 10 µM is on record?
**A.** Its inhibition at 10 µM is 99%.

**Q.** With NC(=O)Nc1[nH]c(-c2ccccc2Cl)cc1C(N)=O [Compound 1-40, 2-Aminocarbonylamino-5-(2-chlorophenyl) pyrrole-3-carboxamide] as the molecule, how does the inhibition at 10 µM read?
**A.** Its inhibition at 10 µM is 99%.

**Q.** For C=CCOc1ccc(Cl)cc1-c1cc(C(N)=O)c(NC(N)=O)[nH]1 [Compound 4-49, 5-(2-Allyloxy-5-chlorophenyl)-2-(aminocarbonylamino)pyrrole-3-carboxamide], which inhibition at 10 µM is on record?
**A.** The inhibition at 10 µM was 100%.

**Q.** For CN1CCN(CCOc2ccc(Cl)cc2-c2cc(C(N)=O)c(NC(N)=O)[nH]2)CC1 [Compound 8-15], which inhibition at 10 µM is on record?
**A.** Its inhibition at 10 µM is 98%.

**Q.** With NC(=O)Nc1[nH]c(-c2cc(Cl)ccc2Cl)cc1C(N)=O [Compound 1-27, 2-Aminocarbonylamino-5-(2,5-dichlorophenyl) pyrrole-3-carboxamide] as the molecule, how does the inhibition at 10 µM read?
**A.** Its inhibition at 10 µM is 100%.

**Q.** How did the inhibition at 10 µM turn out when Cc1ccc(-c2cc(C(N)=O)c(NC(N)=O)[nH]2)s1 [Compound 1-41, 2-Aminocarbonylamino-5-(5-methylthiophen-2-yl) pyrrole-3-carboxamide] was run?
**A.** The inhibition at 10 µM was 96%.

**Q.** Which inhibition at 10 µM does the source give for NC(=O)Nc1[nH]c(-c2cccc(Cl)c2)c(C=O)c1C(N)=O [Compound 17-1, 2-Aminocarbonylamino-5-(3-chlorophenyl)-4-formylpyrrole-3-carboxamide] here?
**A.** Its inhibition at 10 µM is 98%.

**Q.** CN(CCOc1ccc(F)cc1-c1cc(C(N)=O)c(NC(N)=O)[nH]1)C1CCCCC1 [Compound 8-22] was tested. Which inhibition at 10 µM did it give?
**A.** The inhibition at 10 µM was 98%.

**Q.** With CC1CCN(CCOc2ccc(F)cc2-c2cc(C(N)=O)c(NC(N)=O)[nH]2)CC1 [Compound 8-13] as the molecule, how does the inhibition at 10 µM read?
**A.** The inhibition at 10 µM was 100%.

**Q.** Which inhibition at 10 µM does the source give for NC(=O)Nc1[nH]c(-c2cccs2)cc1C(N)=O [Compound 1-16, 2-Aminocarbonylamino-5-(thiophen-2-yl) pyrrole-3-carboxamide] here?
**A.** Its inhibition at 10 µM is 94%.

**Q.** C=Cc1ccc(-c2cc(C(N)=O)c(NC(N)=O)[nH]2)cc1 [Compound 9-1, 2-Aminocarbonylamino-5-(4-vinylphenyl)pyrrole-3-carboxamide] was tested. Which inhibition at 10 µM did it give?
**A.** The inhibition at 10 µM was 100%.

same assay, conditions: test compound at 10 μM, TNF-α stimulation 16 hours, inhibition ratio of 100% or more is indicated as 100%

**Q.** Which “IL-6 production inhibition ratio” value does the source give for COc1ccc(Cl)cc1-c1cc(C(N)=O)c(NC(N)=O)[nH]1 [Compound 1-22, 2-Aminocarbonylamino-5-(5-chloro-2-methoxyphenyl)pyrrole-3-carboxamide] here?
**A.** Its value is 100%.

— US7977371B2, “Pyrrole derivative having ureido group and aminocarbonyl group as substituents” (Santen Pharmaceutical Co., Ltd., priority 2007, dated 2011)
